This passage reports viscosity and mass density results from the NIST ThermoML archive (doi:10.1021/acs.jced.5b01082).

± gives the expanded uncertainty stated by the source.

The conditions of data set [1]: 101.33 kPa, Liquid; for viscosity: Cone and plate viscometry; for mass density: Vibrating tube method.
The nature of data set [2]: wn = mass fraction of the nth substance listed. Particulars: 100 kPa, Liquid; for viscosity: Cone and plate viscometry; for mass density: Vibrating tube method.

Usually viscosity stands for the resistance of a fluid to flow. Usually mass density stands for the mass of a sample divided by its volume. With `CC(CC(C)(C)C)CP(=O)([O-])CC(C)CC(C)(C)C.CCCCCCCCCCCCCC[P+](CCCCCC)(CCCCCC)CCCCCC`, the viscosity was determined as 999.6 ± 120 mPa·s in data set [1] (298.15 K), 482.6 ± 54 mPa·s in data set [1] (310.15 K) and 316.7 ± 35 mPa·s in data set [1] (318.15 K). The mass density in data set [1] (298.15 K) is 884.09 ± 9.7 kg/m3; in data set [1] (310.15 K), 876.93 ± 9.6 kg/m3; in data set [1] (318.15 K), 872.2 ± 9.5 kg/m3.
Turning to `CC(CC(C)(C)C)CP(=O)([O-])CC(C)CC(C)(C)C.CCCCCCCCCCCCCC[P+](CCCCCC)(CCCCCC)CCCCCC` + O, the viscosity in data set [2] (298.15 K, w2 = 0.151) is reported as 142.4 ± 15 mPa·s; in data set [2] (310.15 K, w2 = 0.146) it was 79.66 ± 8.2 mPa·s; in data set [2] (318.15 K, w2 = 0.142), 55.58 ± 5.7 mPa·s. Besides, the mass density in data set [2] (298.15 K, w2 = 0.151) is given as 909.07 ± 9.6 kg/m3; in data set [2] (310.15 K, w2 = 0.146) it was 900.11 ± 9.5 kg/m3; in data set [2] (318.15 K, w2 = 0.142), 893.78 ± 9.4 kg/m3.
